The results in this text go back to EP4722219A1 (Gan & Lee Pharmaceuticals Co., Ltd., priority 2023, dated 2024).

Assay type in all cases: cell-based
Assay [1] deals with T-47D cells. Put plainly: Inhibition of cell proliferation in T-47D cells (CCK-8). To be noted: Homo sapiens, T47D, 144 h, 6 days treatment, CCK-8 cell viability. Summed up:
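T-47D cells (3,000/well) in RPMI-1640 with 10% FBS were exposed to a concentration range of PROTAC compounds for 6 days at 37 °C, 5% CO2. Viability read by CCK-8; IC50 fitted from inhibition rate.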

Assay [2] has as its system MCF-7 cells. Put plainly: Inhibition of cell proliferation in MCF-7 cells (CCK-8). To be noted: Homo sapiens, MCF7, 144 h, MCF-7 cell proliferation, 6 days treatment. Summed up: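 MCF-7 cells, 800 per well in DMEM plus 10% FBS, exposed to graded PROTAC concentrations for 6 days at 37 °C, 5% CO2. Viability by CCK-8; IC50 fitted from inhibition rates.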
The target in assay [3] is T1, ERα (Homo sapiens, UniProt P03372).
T1 sequence (P03372 1-595): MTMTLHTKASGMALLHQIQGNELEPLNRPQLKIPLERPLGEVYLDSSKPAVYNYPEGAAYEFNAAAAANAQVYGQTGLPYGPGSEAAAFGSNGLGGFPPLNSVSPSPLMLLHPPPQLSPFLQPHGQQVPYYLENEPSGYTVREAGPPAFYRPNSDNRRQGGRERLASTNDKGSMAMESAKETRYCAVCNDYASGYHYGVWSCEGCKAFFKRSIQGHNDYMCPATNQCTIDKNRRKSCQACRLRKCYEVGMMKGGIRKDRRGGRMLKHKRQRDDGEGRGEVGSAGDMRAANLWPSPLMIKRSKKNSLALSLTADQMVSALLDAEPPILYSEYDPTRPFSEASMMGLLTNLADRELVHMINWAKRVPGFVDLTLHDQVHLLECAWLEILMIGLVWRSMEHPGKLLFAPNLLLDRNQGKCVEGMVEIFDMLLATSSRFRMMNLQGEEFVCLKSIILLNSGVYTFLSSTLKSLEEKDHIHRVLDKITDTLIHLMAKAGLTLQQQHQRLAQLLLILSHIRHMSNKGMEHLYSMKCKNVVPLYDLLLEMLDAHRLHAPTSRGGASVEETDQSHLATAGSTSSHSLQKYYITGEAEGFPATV
Put plainly: ERα degradation in T-47D cells (Western blot). To be noted: 4 hours. A digest of the protocol: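 T-47D cells at 3×10^5 cells/well were exposed to compound (final 0.15-1000 nM, DMSO) for 4 hours at 37°C and then lysed in RIPA. ERα was measured by Western blot (20 µg protein) with infrared imaging. The degradation rate was calculated from ERα/internal-reference grayscale ratios relative to control.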
For orientation: A western blot detects proteins with antibodies after separation by electrophoresis.

Assay [4] concerns the target T1, ERα. Put plainly: ERα degradation in MCF-7 cells (Western blot). Also on record: host or cells: MCF-7. As to conditions: 4 hours. A digest of the protocol:
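MCF-7 cells treated 4 h at 37 °C with compound at 0.15–1000 nM final. ERα in lysates measured by Western blot (20 µg protein), normalized to an internal reference protein; degradation rate calculated against control.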

For `Cn1c(=O)n(C2CCC(=O)NC2=O)c2cc3c(cc21)C1(CCN(C[C@H]2CC[C@@H](OC4CCN(c5ccc([C@@H]6c7ccc(O)cc7CC[C@@H]6c6ccccc6)cc5)CC4)CC2)CC1)CO3` (stereo partly drawn) [ER-P-55, 3-(1'-(((1S,4S)-4-((1-(4-((1R,2S)-6-hydroxy-2-phenyl-1,2,3,4-tetrahydronaphthalen-1-yl)phenyl)piperidin-4-yl)oxy)cyclohexyl)methyl)-1-methyl-2-oxo-1,2-dihydro-3H,6H-spiro[benzofuro[5,6-d]imidazole-7,4'-piperidin]-3-yl)piperidine-2,6-dione], the half-maximal inhibitory concentration (IC50) was determined as 0.00018 µM in assay [1] and 0.113 µM in assay [2]. Besides, the “Degradation rate of ERα in T-47D cells (%)” value is recorded as 62% in assay [3] (1nM) and 87% in assay [3] (10nM). The “Degradation rate of ERα in MCF-7 cells (%)” value is 35% in assay [4] (1nM) and 69% in assay [4] (10nM).
For the compound `O=C1CCC(n2c(=O)n3c4c(cccc42)N(C[C@H]2CC[C@@H](OC4CCN(c5ccc([C@@H]6c7ccc(O)cc7CC[C@@H]6c6ccccc6)cc5)CC4)CC2)CC3)C(=O)N1` (stereo partly drawn) [ER-P-56, 3-(6-(((1S,4s)-4-((1-(4-((1R,2S)-6-hydroxy-2-phenyl-1,2,3,4-tetrahydronaphthalen-1-yl)phenyl)piperidin-4-yl)oxy)cyclohexyl)methyl)-2-oxo-5,6-dihydro-4H-imidazo[1,5,4-de]quinoxalin-1(2H)-yl)piperidine-2,6-dione], the concentration for half-maximal inhibition (IC50) is 0.0422 µM in assay [1] and 2.46 µM in assay [2]. In addition, the results for the “Degradation rate of ERα in T-47D cells (%)” value in assay [3] (1nM) and in assay [3] (10nM) were 22% and 24%, respectively. In addition, the results for the “Degradation rate of ERα in MCF-7 cells (%)” value in assay [4] (1nM) and in assay [4] (10nM) were -4% and 16%, respectively.
Take `O=C1CCC(N2Cc3c(ccc4c3OCC43CCC4(CCN(C5CCC6(CC5)CCN(c5ccc([C@@H]7c8ccc(O)cc8CC[C@@H]7c7ccccc7)cc5)CC6)CC4)CC3)C2=O)C(=O)N1` (stereo partly drawn) [ER-P-57]: the values for the IC50 in assay [1] and in assay [2] were 0.00319 µM and 0.0127 µM, respectively. Further, the “Degradation rate of ERα in T-47D cells (%)” value in assay [3] (1nM) is 12%; in assay [3] (10nM), 68%. The “Degradation rate of ERα in MCF-7 cells (%)” value in assay [4] (1nM) was 3%; in assay [4] (10nM), 62%.
Consider `O=C1CCC(N2Cc3c(ccc4c3OCC43CCC4(CCN(C5CCN(c6ccc([C@@H]7c8ccc(O)cc8CC[C@@H]7c7ccccc7)cc6)CC5)CC4)CC3)C2=O)C(=O)N1` (stereo partly drawn) [ER-P-58], for which the IC50 stood at 0.00219 µM in assay [1] and 0.0128 µM in assay [2]. In addition, the “Degradation rate of ERα in T-47D cells (%)” value in assay [3] (1nM) was found to be 35%; in assay [3] (10nM) it was 71%. The “Degradation rate of ERα in MCF-7 cells (%)” value in assay [4] (1nM) was 42%; in assay [4] (10nM), 69%.
Consider `Cn1c(=O)n(C2CCC(=O)NC2=O)c2cc3c(cc21)C1(CCN(C2CCC4(CC2)CN(c2ccc([C@@H]5c6ccc(O)cc6CC[C@@H]5c5ccccc5)cc2)C4)CC1)CO3` (stereo partly drawn) [ER-P-59], for which the IC50 was found to be 0.00096 µM in assay [1] and 0.000875 µM in assay [2]. Further, the figures for the “Degradation rate of ERα in T-47D cells (%)” value in assay [3] (1nM) and in assay [3] (10nM) were 40% and 63%, respectively. The “Degradation rate of ERα in MCF-7 cells (%)” value in assay [4] (1nM) is reported as 14%; in assay [4] (10nM) it was 18%.
Consider `Cn1c(=O)n(C2CCC(=O)NC2=O)c2cc3c(cc21)C1(CCN(C2CCC4(CC2)CCN(c2ccc([C@@H]5c6ccc(O)cc6CC[C@@H]5c5ccccc5)cc2)CC4)CC1)CO3` (stereo partly drawn) [ER-P-60], for which the values for the half-maximal inhibitory concentration (IC50) in assay [1] and in assay [2] were 0.00141 µM and 0.000362 µM, respectively. For the same compound, the figures for the “Degradation rate of ERα in T-47D cells (%)” value in assay [3] (1nM) and in assay [3] (10nM) were 21% and 51%, respectively. For the same compound, the “Degradation rate of ERα in MCF-7 cells (%)” value in assay [4] (1nM) came to 14%; in assay [4] (10nM) it was 36%.
For `Cn1c(=O)n(C2CCC(=O)NC2=O)c2cc3c(cc21)C1(CCN(CC2CCC4(CC2)CN(c2ccc([C@@H]5c6ccc(O)cc6CC[C@@H]5c5ccccc5)cc2)C4)CC1)CO3` (stereo partly drawn) [ER-P-61], the values for the IC50 in assay [1] and in assay [2] were 0.00112 µM and 0.0288 µM, respectively. In addition, the figures for the “Degradation rate of ERα in T-47D cells (%)” value in assay [3] (1nM) and in assay [3] (10nM) were 22% and 43%, respectively. Besides, the “Degradation rate of ERα in MCF-7 cells (%)” value turned out to be 9% in assay [4] (1nM) and 18% in assay [4] (10nM).
Regarding `Cn1c(=O)n(C2CCC(=O)NC2=O)c2cc3c(cc21)C1(CCN(CC2CCC4(CC2)CCN(c2ccc([C@@H]5c6ccc(O)cc6CC[C@@H]5c5ccccc5)cc2)CC4)CC1)CO3` (stereo partly drawn) [ER-P-62], the IC50 in assay [1] was found to be 0.00264 µM; in assay [2], 0.183 µM. Further, the “Degradation rate of ERα in T-47D cells (%)” value in assay [3] (1nM) stood at 13%; in assay [3] (10nM) it was 52%. In addition, the entries for the “Degradation rate of ERα in MCF-7 cells (%)” value in assay [4] (1nM) and in assay [4] (10nM) were 14% and 39%, respectively.
For `Cn1c(=O)n(C2CCC(=O)NC2=O)c2ccc3c(c21)OCC31CCN(CC2CCN(C(=O)C3CCN(c4ccc([C@@H]5c6ccc(O)cc6CC[C@@H]5c5ccccc5)cc4)CC3)CC2)CC1` (stereo partly drawn) [ER-P-63, 3-(1'-((1-(1-(4-((1R,2S)-6-hydroxy-2-phenyl-1,2,3,4-tetrahydronaphthalen-1-yl)phenyl)piperidine-4-carbonyl)piperidin-4-yl)methyl)-1-methyl-2-oxo-1,2-dihydro-3H,7H-spiro[benzofuro[6,7-d]imidazole-6,4'-piperidin]-3-yl)piperidine-2,6-dione], the IC50 is 0.00115 µM in assay [1] and 3.75 µM in assay [2]. Moreover, the “Degradation rate of ERα in T-47D cells (%)” value in assay [3] (1nM) was determined as 56%; in assay [3] (10nM), 65%. The “Degradation rate of ERα in MCF-7 cells (%)” value in assay [4] (1nM) was 53%; in assay [4] (10nM), 56%.
For the compound `CN(C(=O)CN1CCC2(CC1)COc1c2ccc2c1n(C)c(=O)n2C1CCC(=O)NC1=O)C1CCC2(CC1)CN(c1ccc([C@@H]3c4ccc(O)cc4CC[C@@H]3c3ccccc3)cc1)C2` (stereo partly drawn) [ER-P-64, 2-(3-(2,6-dioxopiperidin-3-yl)-1-methyl-2-oxo-2,3-dihydro-1H,7H-spiro[benzofuro[6,7-d]imidazole-6,4'-piperidin]-1'-yl)-N-(2-(4-((1R,2S)-6-hydroxy-2-phenyl-1,2,3,4-tetrahydronaphthalen-1-yl)phenyl)-2-azaspiro[3.5]nonan-7-yl)-N-methylacetamide], the IC50 was 0.0015 µM in assay [1] and 0.231 µM in assay [2]. In addition, the entries for the “Degradation rate of ERα in T-47D cells (%)” value in assay [3] (1nM) and in assay [3] (10nM) were 56% and 80%, respectively. The entries for the “Degradation rate of ERα in MCF-7 cells (%)” value in assay [4] (1nM) and in assay [4] (10nM) were 46% and 57%, respectively.
Consider `Cn1c(=O)n(C2CCC(=O)NC2=O)c2cc3c(cc21)OC1(CC3)CCN(C[C@H]2CC[C@@H](OC3CCN(c4ccc([C@@H]5c6ccc(O)cc6CC[C@@H]5c5ccccc5)cc4)CC3)CC2)CC1` (stereo partly drawn) [ER-P-65, 3-(1'-(((1S,4S)-4-((1-(4-((1R,2S)-6-hydroxy-2-phenyl-1,2,3,4-tetrahydronaphthalen-1-yl)phenyl)piperidin-4-yl)oxy)cyclohexyl)methyl)-3-methyl-2-oxo-2,3,7,8-tetrahydro-1H-spiro[benzopyrano[6,7-d]imidazole-6,4'-piperidin]-1-yl)piperidine-2,6-dione], for which the values for the IC50 in assay [1] and in assay [2] were 0.00734 µM and 0.261 µM, respectively. Also, the “Degradation rate of ERα in T-47D cells (%)” value in assay [3] (1nM) was 20%; in assay [3] (10nM) it was 77%. In addition, the “Degradation rate of ERα in MCF-7 cells (%)” value in assay [4] (1nM) is recorded as 21%; in assay [4] (10nM), 62%.
Consider `Cn1c(=O)n(C2CCC(=O)NC2=O)c2ccc3c(c21)C1(CCN(C[C@H]2CC[C@@H](OC4CCN(c5ccc([C@@H]6c7ccc(O)cc7CC[C@@H]6c6ccccc6)cc5)CC4)CC2)CC1)CO3` (stereo partly drawn) [ER-P-66, 3-(1'-(((1S,4s)-4-((1-(4-((1R,2S)-6-hydroxy-2-phenyl-1,2,3,4-tetrahydronaphthalen-1-yl)phenyl)piperidin-4-yl)oxy)cyclohexyl)methyl)-1-methyl-2-oxo-1,2-dihydro-3H,7H-spiro[benzofuro[4,5-d]imidazole-8,4'-piperidin]-3-yl)piperidine-2,6-dione], for which the IC50 in assay [1] came to 0.014 µM; in assay [2], 4.1 µM. Further, the “Degradation rate of ERα in T-47D cells (%)” value in assay [3] (1nM) is 18%; in assay [3] (10nM), 49%. The “Degradation rate of ERα in MCF-7 cells (%)” value in assay [4] (1nM) amounted to 6%; in assay [4] (10nM), 30%.

What is called IC50 is the midpoint of a concentration-inhibition curve. Read a high IC50 as lower potency.
